For 2 molecules, MIC results are on record in publication PMC8720286 (Chemical biology & drug design, 2020).

What all share (assay): microbe, parasite or virus in culture
For one assay, the system named is Mtb KZN494/MDR. Format: cell-based, Mycobacterium tuberculosis. The following applies: Mycobacterium tuberculosis, KZN494/MDR, read-out: Mtb MIC KZN494/MDR.
For another assay, the system named is Mtb R506/XDR. The class given is cell-based. The following applies: Mycobacterium tuberculosis, read-out: Mtb MIC R506/XDR.
A further assay deals with Mtb V2475/MDR. The class given is cell-based. The following applies: Mycobacterium tuberculosis, read-out: Mtb MIC V2475/MDR.
For a further assay, the system named is Mtb TF274/XDR. The class given is cell-based. To be noted: Mycobacterium tuberculosis, read-out: Mtb MIC TF274/XDR.

In brackets after ≈: the same amount, converted by molar mass.

In the case of `Cc1ccc2nc(C)c(C(=O)NCCCC3CCCCC3)n2c1` [Compound 15, N-(3-cyclohexylpropyl)-2,6-dimethylimidazo[1,2-a]pyridine-3-carboxamide], the MIC was 0.05 µM (≈ 0.0157 µg/mL) in the assay on Mtb KZN494/MDR, 0.1 µM (≈ 0.0313 µg/mL) in the assay with Mtb R506/XDR, 0.2 µM (≈ 0.0627 µg/mL) with Mtb V2475/MDR and 0.2 µM (≈ 0.0627 µg/mL) in the assay on Mtb TF274/XDR.
On to `Cc1nc2ccc(Cl)cn2c1C(=O)NCCCC1CCCCC1` [Compound 16, 6-chloro-N-(3-cyclohexylpropyl)-2-methylimidazo[1,2-a]pyridine-3-carboxamide], for which the MIC was found to be 0.09 µM (≈ 0.03 µg/mL) in the assay with Mtb KZN494/MDR, 0.75 µM (≈ 0.25 µg/mL) in the assay on Mtb R506/XDR, 0.37 µM (≈ 0.124 µg/mL) with Mtb V2475/MDR and 1.5 µM (≈ 0.501 µg/mL) in the assay with Mtb TF274/XDR.
